Source: patent US12398097B2, “WDR5-MYC inhibitors” (Vanderbilt University, priority 2019, dated 2025)

Molecular target: WDR5 (Homo sapiens, UniProt P61964)
Assay: Competition-based fluorescence polarization anisotropy assay
Conditions: binding to WDR5; displacement of FITC-labeled small molecule probe (analogous to Example J2 or HCH-25) or peptide probe FITC-AHx-SEEEIDVVSV; pH 6.0; Ki converted from IC50
Method in brief: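 Ki values derive from displacement of either a fluorescent small-molecule probe or a FITC-peptide probe from WDR5, monitored by fluorescence polarization. Assay run at pH 6.0 in 200 mM phosphate with 300 mM NaCl, 0.5 mM TCEP and 0.1% Chaps.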

CNC(=O)c1cc(C2CC2)cc(NS(=O)(=O)c2cc(Br)cc(Cl)c2O)c1F [Example J156, 3-((5-Bromo-3-chloro-2-hydroxyphenyl)sulfonamido)-5-cyclopropyl-2-fluoro-N-methylbenzamide]
Ki: 210 nM

COCCNC(=O)c1cc(C2CC2)cc(NS(=O)(=O)c2cc(Br)cc(Cl)c2O)c1F [Example J157, 3-((5-Bromo-3-chloro-2-hydroxyphenyl)sulfonamido)-5-cyclopropyl-2-fluoro-N-(2-methoxyethyl)benzamide]
Ki: 210 nM

O=C(NCCN1CCOCC1)c1cc(C2CC2)cc(NS(=O)(=O)c2cc(Br)cc(Cl)c2O)c1F [Example J158, 3-((5-Bromo-3-chloro-2-hydroxyphenyl)sulfonamido)-5-cyclopropyl-2-fluoro-N-(2-morpholinoethyl)benzamide]
Ki: 320 nM

O=C(NC1COC1)c1cc(C2CC2)cc(NS(=O)(=O)c2cc(Br)cc(Cl)c2O)c1F [Example J159, 3-((5-Bromo-3-chloro-2-hydroxyphenyl)sulfonamido)-5-cyclopropyl-2-fluoro-N-(oxetan-3-yl)benzamide]
Ki: 610 nM

O=C(O)c1cc(OC(F)(F)F)cc(NS(=O)(=O)c2cc(Br)ccc2O)c1O [Example J160, 3-((5-Bromo-2-hydroxyphenyl)sulfonamido)-2-hydroxy-5-(trifluoromethoxy)benzoic acid]
Ki: 60 nM

O=C(O)c1cc(OC(F)(F)F)cc(NS(=O)(=O)c2cc(Br)cc3cccnc23)c1O [Example J161, 3-((6-Bromoquinoline)-8-sulfonamido)-2-hydroxy-5-(trifluoromethoxy)benzoic acid]
Ki: 350 nM

CNC(=O)c1cc(OC(F)(F)F)cc(NS(=O)(=O)c2cc(Br)ccc2O)c1O [Example J162, 3-((5-Bromo-2-hydroxyphenyl)sulfonamido)-2-hydroxy-N-methyl-5-(trifluoromethoxy)benzamide]
Ki: 410 nM

COCCNC(=O)c1cc(OC(F)(F)F)cc(NS(=O)(=O)c2cc(Br)ccc2O)c1O [Example J163, 3-((5-Bromo-2-hydroxyphenyl)sulfonamido)-2-hydroxy-N-(2-methoxyethyl)-5-(trifluoromethoxy)benzamide]
Ki: 570 nM

O=C(NCCN1CCOCC1)c1cc(OC(F)(F)F)cc(NS(=O)(=O)c2cc(Br)ccc2O)c1O [Example J164, 3-((5-Bromo-2-hydroxyphenyl)sulfonamido)-2-hydroxy-N-(2-morpholinoethyl)-(trifluoromethoxy)benzamide]
Ki: 1440 nM

O=C(NCC1CCCO1)c1cc(OC(F)(F)F)cc(NS(=O)(=O)c2cc(Br)ccc2O)c1O (stereo not shown) [Example J165, 3-((5-Bromo-2-hydroxyphenyl)sulfonamido)-2-hydroxy-N-((tetrahydrofuran-2-yl)methyl)-5-(trifluoromethoxy)benzamide]
Ki: 420 nM

O=C(NCC1CCOC1)c1cc(OC(F)(F)F)cc(NS(=O)(=O)c2cc(Br)ccc2O)c1O (stereo not shown) [Example J166, 3-((5-Bromo-2-hydroxyphenyl)sulfonamido)-2-hydroxy-N-((tetrahydrofuran-3-yl)methyl)-5-(trifluoromethoxy)benzamide]
Ki: 680 nM

O=C(NC1CCOC1)c1cc(OC(F)(F)F)cc(NS(=O)(=O)c2cc(Br)ccc2O)c1O (stereo not shown) [Example J167, 3-((5-Bromo-2-hydroxyphenyl)sulfonamido)-2-hydroxy-N-(tetrahydrofuran-3-yl)-5-(trifluoromethoxy)benzamide]
Ki: 360 nM

O=C(N[C@H]1CCOC1)c1cc(OC(F)(F)F)cc(NS(=O)(=O)c2cc(Br)ccc2O)c1O [Example J168, (S)-3-((5-Bromo-2-hydroxyphenyl)sulfonamido)-2-hydroxy-N-(tetrahydrofuran-3-yl)-5-(trifluoromethoxy)benzamide]
Ki: 460 nM

O=C(c1cc(OC(F)(F)F)cc(NS(=O)(=O)c2cc(Br)ccc2O)c1O)N1CCC[C@H]1CO [Example J169, (S)-5-Bromo-2-hydroxy-N-(2-hydroxy-3-(2-(hydroxymethyl)pyrrolidine-1-carbonyl)-5-(trifluoromethoxy)phenyl)benzenesulfonamide]
Ki: 1710 nM

O=C(c1cc(OC(F)(F)F)cc(NS(=O)(=O)c2cc(Br)ccc2O)c1O)N1CCC[C@@H]1CO [Example J170, (R)-5-Bromo-2-hydroxy-N-(2-hydroxy-3-(2-(hydroxymethyl)pyrrolidine-1-carbonyl)-5-(trifluoromethoxy)phenyl)benzenesulfonamide]
Ki: 2840 nM

COC[C@@H]1CCCN1C(=O)c1cc(OC(F)(F)F)cc(NS(=O)(=O)c2cc(Br)ccc2O)c1O [Example J171, (S)-5-Bromo-2-hydroxy-N-(2-hydroxy-3-(2-(methoxymethyl)pyrrolidine-1-carbonyl)-5-(trifluoromethoxy)phenyl)benzenesulfonamide]
Ki: 1040 nM

COC[C@H]1CCCN1C(=O)c1cc(OC(F)(F)F)cc(NS(=O)(=O)c2cc(Br)ccc2O)c1O [Example J172, (R)-5-Bromo-2-hydroxy-N-(2-hydroxy-3-(2-(methoxymethyl)pyrrolidine-1-carbonyl)-5-(trifluoromethoxy)phenyl)benzenesulfonamide]
Ki: 680 nM

O=C(c1cc(OC(F)(F)F)cc(NS(=O)(=O)c2cc(Br)ccc2O)c1O)N1CC[C@@H](O)C1 [Example J173, (R)-5-Bromo-2-hydroxy-N-(2-hydroxy-3-(3-hydroxypyrrolidine-1-carbonyl)-5-(trifluoromethoxy)phenyl)benzenesulfonamide]
Ki: 1560 nM

COC1CCN(C(=O)c2cc(OC(F)(F)F)cc(NS(=O)(=O)c3cc(Br)ccc3O)c2O)C1 (stereo not shown) [Example J174, 5-Bromo-2-hydroxy-N-(2-hydroxy-3-(3-methoxypyrrolidine-1-carbonyl)-5-(trifluoromethoxy)phenyl)benzenesulfonamide]
Ki: 4690 nM

CNC(=O)c1cc(OC(F)(F)F)cc(NS(=O)(=O)c2cc(Cl)ccc2O)c1O [Example J175, 3-((5-Chloro-2-hydroxyphenyl)sulfonamido)-2-hydroxy-N-methyl-5-(trifluoromethoxy)benzamide]
Ki: 810 nM

COC[C@@H]1CCCN1C(=O)c1cc(OC(F)(F)F)cc(NS(=O)(=O)c2cc(Cl)ccc2O)c1O [Example J176, (S)-5-Chloro-2-hydroxy-N-(2-hydroxy-3-(2-(methoxymethyl)pyrrolidine-1-carbonyl)-5-(trifluoromethoxy)phenyl)benzenesulfonamide]
Ki: 7010 nM

COC[C@H]1CCCN1C(=O)c1cc(OC(F)(F)F)cc(NS(=O)(=O)c2cc(Cl)ccc2O)c1O [Example J177, (R)-5-Chloro-2-hydroxy-N-(2-hydroxy-3-(2-(methoxymethyl)pyrrolidine-1-carbonyl)-5-(trifluoromethoxy)phenyl)benzenesulfonamide]
Ki: 4860 nM

O=C(NCC1CCCO1)c1cc(OC(F)(F)F)cc(NS(=O)(=O)c2cc(Cl)ccc2O)c1O (stereo not shown) [Example J178, 3-((5-Chloro-2-hydroxyphenyl)sulfonamido)-2-hydroxy-N-((tetrahydrofuran-2-yl)methyl)-5-(trifluoromethoxy)benzamide]
Ki: 700 nM

COc1ccc(Br)cc1S(=O)(=O)Nc1cc(OC(F)(F)F)cc(C(=O)NCC2CCCO2)c1O (stereo not shown) [Example J179, 3-((5-Bromo-2-methoxyphenyl)sulfonamido)-2-hydroxy-N-((tetrahydrofuran-2-yl)methyl)-5-(trifluoromethoxy)benzamide]
Ki: 740 nM

COC[C@@H]1CCCN1C(=O)c1cc(OC(F)(F)F)cc(NS(=O)(=O)c2cc(Br)ccc2OC)c1O [Example J180, (S)-5-Bromo-N-(2-hydroxy-3-(2-(methoxymethyl)pyrrolidine-1-carbonyl)-5-(trifluoromethoxy)phenyl)-2-methoxybenzenesulfonamide]
Ki: 4020 nM

COC[C@H]1CCCN1C(=O)c1cc(OC(F)(F)F)cc(NS(=O)(=O)c2cc(Br)ccc2OC)c1O [Example J181, (R)-5-bromo-N-(2-hydroxy-3-(2-(methoxymethyl)pyrrolidine-1-carbonyl)-5-(trifluoromethoxy)phenyl)-2-methoxybenzenesulfonamide]
Ki: 5880 nM

CNC(=O)c1cc(OC(F)(F)F)cc(NS(=O)(=O)c2cc(Br)cc3cccnc23)c1O [Example J182, 3-((6-Bromoquinoline)-8-sulfonamido)-2-hydroxy-N-methyl-5-(trifluoromethoxy)benzamide]
Ki: 1060 nM

COc1ccc(Br)cc1S(=O)(=O)Nc1cc(-c2ccccc2)cc(C(=O)O)c1O [Example J183, 5-((5-Bromo-2-methoxyphenyl)sulfonamido)-4-hydroxy-[1,1′-biphenyl]-3-carboxylic acid]
Ki: 2380 nM

Cc1c(-c2ccccc2)cc(NS(=O)(=O)c2cc(Br)ccc2O)c(O)c1C(=O)O [Example J184, 5-((5-Bromo-2-hydroxyphenyl)sulfonamido)-4-hydroxy-2-methyl-[1,1′-biphenyl]-3-carboxylic acid]
Ki: 1620 nM

Cc1c(C2CC2)cc(NS(=O)(=O)c2cc(Br)ccc2O)c(O)c1C(=O)O [Example J185, 3-((5-Bromo-2-hydroxyphenyl)sulfonamido)-5-cyclopropyl-2-hydroxy-6-methylbenzoic acid]
Ki: 580 nM

COc1ccc(Br)cc1S(=O)(=O)Nc1cc(C(=O)O)cc(C2=CCOCC2)c1 [Example J193, 3-((5-Bromo-2-methoxyphenyl)sulfonamido)-5-(3,6-dihydro-2H-pyran-4-yl)benzoic acid]
Ki: 69200 nM

COc1ccc(Br)cc1S(=O)(=O)Nc1cc(N2CCOCC2)cc(C(=O)O)c1O [Example J194, 3-((5-Bromo-2-methoxyphenyl)sulfonamido)-2-hydroxy-5-morpholinobenzoic acid]
Ki: 10300 nM

O=C(O)c1cc(-c2ccsc2)cc(NS(=O)(=O)c2cc(Br)ccc2O)c1O [Example J195, 3-((5-Bromo-2-hydroxyphenyl)sulfonamido)-2-hydroxy-5-(thiophen-3-yl)benzoic acid]
Ki: 940 nM

O=C(O)c1cc(-c2cccs2)cc(NS(=O)(=O)c2cc(Br)ccc2O)c1O [Example J196, 3-((5-bromo-2-hydroxyphenyl)sulfonamido)-2-hydroxy-5-(thiophen-2-yl)benzoic acid]
Ki: 1070 nM
